Patent publication US8795705B2, “Dermatologic compositions comprising pyrrolidone-5-carboxylic acid and at least one entity chosen from citrulline, arginine and asparagine, and uses thereof in the treatment of atopic dermatitis” (Galderma Research & Development, priority 2007, dated 2014)
Where a name gives a salt, the structure may show the parent alone.

Assay: Assessment of hygroscopic properties: residual water weight of solutions as a function of time in a thermal container
Type: physicochemical
Conditions: 50° C., humidity 30%, each compound at 5% in water, after 120 minutes, versus water as negative control (FIG. 1)
Procedure: Each compound was dissolved in water (w/w) to obtain a 5% solution. To prepare a 5% two-amino acid solution, the L-arginine powder was dissolved directly in the 5% PCA sodium salt solution (w/w). To assess the hygroscopic properties of amino acids, we studied the residual water weight of different solutions as a function of time. We determined the weight of residual water in each solution after different times in an atmosphere in which temperature and humidity were controlled in a thermal container (Vötsch VC0018). The temperature used for our assays was initially set at 50° C. and later at 30° C. to approximate skin conditions more closely. Humidity was set at 30%. Using these parameters, we determined the weight of each solution before heating it and at different times during the heating. The heating lasted for 120 minutes at 50° C. and data was recorded from 45 to 120 minutes. At 30° C. the heating lasted for 135 minutes and data was recorded from 90 to 135 minutes. The residual weight expected at the end of the study which corresponds to the weight of the compound in the solution was calculated (for example, if the initial total weight for a 5% solution was 100 mg, the weight of the compound was 5 mg). The residual water weight of each solution was obtained by subtracting the expected weight of the compound from the total weight of the solution at different times. […]

| Structure (SMILES) | percentage of residual water weight (evaporation of the water contained in the solutions) |
| --- | --- |
| N=C(N)NCCC[C@H](N)C(=O)O [L-Arginine] | decreased the evaporation of the water |
| O=C1CCC(C(=O)O)N1 (centres unmarked) [PCA Na, 2-Pyrrolidone-5-carboxylic acid sodium salt] | decreased the evaporation of the water |
